Experimental data as given in ChEMBL document CHEMBL5113490, “Discovery of CN0 as a novel proteolysis-targeting chimera (PROTAC) degrader of PARP1 that can activate the cGAS/STING immunity pathway combined with daunorubicin” (Bioorg Med Chem, 2022).
Activity calls are given as the source filed them. The calls are words filed in the database; no cut-off is given here.

What was measured:
[1] = system: MDA-MB-231; assay: Growth inhibition of human MDA-MB-231 cells at 0.25 uM; type: functional; conditions: read-out: GI
[2] = system: MDA-MB-231; assay: Growth inhibition of human MDA-MB-231 cells at 1 uM; type: functional; conditions: read-out: GI
[3] = Cytotoxicity against human MCF-10A cells assessed as growth inhibition at 0.25 uM; type: toxicity, cell-based; conditions: read-out: GI
[4] = Cytotoxicity against human MCF-10A cells assessed as growth inhibition at 0.5 uM; type: toxicity, cell-based; conditions: read-out: GI
[5] = system: 4T1; assay: Growth inhibition of mouse 4T1 cells at 0.25 uM; type: functional; conditions: read-out: GI
[6] = system: 4T1; assay: Growth inhibition of mouse 4T1 cells at 0.5 uM; type: functional; conditions: read-out: GI
[7] = system: 4T1; assay: Growth inhibition of mouse 4T1 cells at 1 uM; type: functional; conditions: read-out: GI
[8] = system: MDA-MB-231; assay: Growth inhibition of human MDA-MB-231 cells at 4 uM; type: functional; conditions: read-out: GI
[9] = system: 4T1; assay: Antitumor activity against mouse 4T1 cells allografted in immunocompetent mouse assessed as reduction in tumor volume at 25 mg/kg, ip administered once a day in presence of daunorubicin at 0.5 mg/kg, ip administered once a day; type: functional, organism-based
[10] = system: MDA-MB-231; assay: Activation of cGAS/STING pathway in human MDA-MB-231 cells assessed as increase in P65 phosphorylation at 10 uM in presence of 0.5 uM daunorubicin measured after 24 hrs; type: cell-based; conditions: filed as activator
[11] = system: 4T1; assay: Growth inhibition of mouse 4T1 cells assessed as combination index at 10 uM in presence of 0.25 uM daunorubicin; type: functional
[12] = system: 4T1; assay: Growth inhibition of mouse 4T1 cells at 10 uM in presence of 1 uM daunorubicin; type: functional; conditions: read-out: GI
[13] = Half-life in rat at 8 mg/kg, iv; type: ADME, organism-based; conditions: in vivo
[14] = system: MDA-MB-231; assay: Activation of cGAS/STING pathway in human MDA-MB-231 cells assessed as upregulation of cGAS mRNA expression at 10 uM in presence of 0.5 uM daunorubicin measured after 24 hrs; type: cell-based; conditions: filed as activator
[15] = system: 4T1; assay: In vivo protac activity at CRBN/PARP1 in mouse 4T1 cells xenografted in mouse assessed as PARP1 degradation at 25 mg/kg, ip administered once a day; type: functional, organism-based
[16] = AUC (0 to t) in rat at 8 mg/kg, iv; type: ADME, organism-based; parameters: dose 8 mg/kg, route iv; conditions: in vivo
[17] = system: MDA-MB-231; assay: Activation of cGAS/STING pathway in human MDA-MB-231 cells assessed as increase in IRF3 phosphorylation at S396 residue at 10 uM in presence of 0.5 uM daunorubicin measured after 24 hrs; type: cell-based; conditions: filed as activator
[18] = system: MDA-MB-231; assay: Activation of cGAS/STING pathway in human MDA-MB-231 cells assessed as upregulation of CCL5 mRNA expression at 10 uM in presence of 0.5 uM daunorubicin measured after 24 hrs; type: cell-based; conditions: filed as activator
[19] = system: MDA-MB-231; assay: Growth inhibition of human MDA-MB-231 cells at 10 uM in presence of 1 uM daunorubicin; type: functional; conditions: read-out: GI
[20] = biological target: T1, Protein cereblon/Poly [ADP-ribose] polymerase 1 (Homo sapiens, UniProt P09874+Q96SW2); assay: Protac activity at CRBN/PARP1 in human MDA-MB-231 cells assessed as PARP1 degradation at 10 uM measured after 3 hrs in presence of 10 uM Z-VAD-FMK; type: cell-based
Target sequence in this assay (P09874 2-1014 limits assumed): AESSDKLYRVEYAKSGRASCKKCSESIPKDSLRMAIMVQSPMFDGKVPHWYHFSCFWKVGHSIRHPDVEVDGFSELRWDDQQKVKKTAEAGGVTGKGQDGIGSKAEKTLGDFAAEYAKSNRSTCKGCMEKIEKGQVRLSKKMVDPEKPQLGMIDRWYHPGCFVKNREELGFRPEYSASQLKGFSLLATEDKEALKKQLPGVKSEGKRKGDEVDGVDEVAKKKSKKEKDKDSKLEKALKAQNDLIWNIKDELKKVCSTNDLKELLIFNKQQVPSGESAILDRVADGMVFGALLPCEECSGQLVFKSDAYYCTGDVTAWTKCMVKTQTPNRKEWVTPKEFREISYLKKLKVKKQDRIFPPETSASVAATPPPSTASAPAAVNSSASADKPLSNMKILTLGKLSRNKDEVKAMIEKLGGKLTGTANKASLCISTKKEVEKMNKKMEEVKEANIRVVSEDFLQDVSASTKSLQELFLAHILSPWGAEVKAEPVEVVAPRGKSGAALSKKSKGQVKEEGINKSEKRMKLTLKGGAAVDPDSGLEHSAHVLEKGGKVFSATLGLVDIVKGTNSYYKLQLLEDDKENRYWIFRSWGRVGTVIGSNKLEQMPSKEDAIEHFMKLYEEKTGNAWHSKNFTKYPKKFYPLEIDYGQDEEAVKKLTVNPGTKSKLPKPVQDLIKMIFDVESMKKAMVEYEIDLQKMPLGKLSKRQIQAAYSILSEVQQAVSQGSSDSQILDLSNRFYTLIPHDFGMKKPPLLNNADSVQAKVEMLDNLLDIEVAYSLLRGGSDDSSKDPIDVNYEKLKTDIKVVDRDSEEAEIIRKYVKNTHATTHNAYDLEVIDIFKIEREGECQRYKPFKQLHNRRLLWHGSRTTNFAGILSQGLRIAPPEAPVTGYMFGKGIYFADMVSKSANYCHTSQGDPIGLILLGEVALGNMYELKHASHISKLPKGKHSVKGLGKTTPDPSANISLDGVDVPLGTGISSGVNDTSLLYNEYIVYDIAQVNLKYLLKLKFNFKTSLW
Target sequence in this assay (Q96SW2 whole entry partner): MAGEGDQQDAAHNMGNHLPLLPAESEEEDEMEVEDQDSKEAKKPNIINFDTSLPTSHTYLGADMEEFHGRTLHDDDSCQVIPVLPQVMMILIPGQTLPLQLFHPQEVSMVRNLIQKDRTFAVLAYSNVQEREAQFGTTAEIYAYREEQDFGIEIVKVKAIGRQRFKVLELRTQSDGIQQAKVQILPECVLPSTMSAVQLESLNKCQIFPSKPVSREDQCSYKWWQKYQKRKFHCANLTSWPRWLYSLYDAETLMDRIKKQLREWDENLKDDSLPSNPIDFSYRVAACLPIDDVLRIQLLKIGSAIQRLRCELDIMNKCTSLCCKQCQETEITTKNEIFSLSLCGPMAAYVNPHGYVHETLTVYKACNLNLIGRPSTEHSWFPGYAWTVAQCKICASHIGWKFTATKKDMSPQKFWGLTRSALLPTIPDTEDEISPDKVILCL

[21] = system: MDA-MB-231; assay: Antiproliferative activity against human MDA-MB-231 cells assessed as increase in cell killing by T cells at 10 uM in presence of 0.5 uM daunorubicin measured after 24 hrs by flow cytometry analysis; type: functional, cell-based
[22] = system: 4T1; assay: Antitumor activity against mouse 4T1 cells allografted in immunocompetent mouse assessed as increase in CD8-positive T cells at 25 mg/kg, ip administered once a day in presence of daunorubicin at 0.5 mg/kg, ip administered once a day; type: functional, organism-based
[23] = system: 4T1; assay: Growth inhibition of mouse 4T1 cells at 10 uM in presence of 0.25 uM daunorubicin; type: functional; conditions: read-out: GI
[24] = biological target: Protein cereblon (Homo sapiens) (UniProt Q96SW2); assay: Binding affinity to CRBN in human MDA-MB-231 cells measured by thermal shift assay; type: cell-based
Chain of Protein cereblon (Homo sapiens) (Q96SW2 whole entry): as the sequence (Q96SW2 whole entry partner) above

[25] = system: MDA-MB-231; assay: Activation of cGAS/STING pathway in human MDA-MB-231 cells assessed as increase in TBK1 phosphorylation at S172 residue at 10 uM in presence of 0.5 uM daunorubicin measured after 24 hrs; type: cell-based; conditions: filed as activator
[26] = biological target: T1, Protein cereblon/Poly [ADP-ribose] polymerase 1; assay: Protac activity at CRBN/PARP1 in human MDA-MB-231 cells assessed as PARP1 degradation measured after 24 hrs; type: cell-based
Target sequence in this assay (P09874 whole entry): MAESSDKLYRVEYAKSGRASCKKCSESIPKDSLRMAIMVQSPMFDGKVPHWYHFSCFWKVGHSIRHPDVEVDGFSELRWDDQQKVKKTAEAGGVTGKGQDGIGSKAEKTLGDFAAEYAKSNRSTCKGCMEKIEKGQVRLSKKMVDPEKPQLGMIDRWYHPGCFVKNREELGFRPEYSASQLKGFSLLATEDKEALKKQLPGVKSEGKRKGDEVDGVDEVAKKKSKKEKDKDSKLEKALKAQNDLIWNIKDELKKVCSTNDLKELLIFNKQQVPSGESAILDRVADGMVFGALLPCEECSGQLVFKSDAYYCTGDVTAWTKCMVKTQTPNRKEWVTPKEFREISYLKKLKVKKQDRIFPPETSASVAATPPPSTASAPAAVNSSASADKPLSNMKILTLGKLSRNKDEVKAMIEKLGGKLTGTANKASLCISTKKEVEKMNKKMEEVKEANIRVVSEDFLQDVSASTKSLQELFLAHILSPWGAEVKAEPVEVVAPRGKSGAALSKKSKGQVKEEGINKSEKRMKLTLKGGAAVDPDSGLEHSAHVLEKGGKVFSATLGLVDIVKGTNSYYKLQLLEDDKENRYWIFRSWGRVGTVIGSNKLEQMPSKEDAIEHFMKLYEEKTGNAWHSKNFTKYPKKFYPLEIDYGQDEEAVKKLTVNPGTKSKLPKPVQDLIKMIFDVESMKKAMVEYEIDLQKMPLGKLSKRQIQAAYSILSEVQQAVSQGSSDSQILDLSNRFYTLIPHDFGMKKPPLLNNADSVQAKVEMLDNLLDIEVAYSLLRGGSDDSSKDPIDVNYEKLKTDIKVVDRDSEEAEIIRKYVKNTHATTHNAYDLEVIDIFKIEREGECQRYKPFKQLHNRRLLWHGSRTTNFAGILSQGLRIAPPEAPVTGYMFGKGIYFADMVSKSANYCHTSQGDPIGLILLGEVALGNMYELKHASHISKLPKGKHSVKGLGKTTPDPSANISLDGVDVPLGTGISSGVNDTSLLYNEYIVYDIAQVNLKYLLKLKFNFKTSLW
Target sequence in this assay (Q96SW2 whole entry): as the sequence (Q96SW2 whole entry partner) above

[27] = Cytotoxicity against human MCF-10A cells assessed as growth inhibition at 10 uM in presence of 0.25 uM daunorubicin; type: toxicity, cell-based; conditions: read-out: GI
[28] = Toxicity in immunocompetent mouse allografted with mouse 4T1 cells assessed as effect on body weight at 25 mg/kg, ip administered once a day in presence of daunorubicin at 0.5 mg/kg, ip administered once a day; type: organism-based; conditions: in vivo
[29] = MRT in rat at 8 mg/kg, iv; type: ADME, organism-based; conditions: in vivo
[30] = system: 4T1; assay: Growth inhibition of mouse 4T1 cells at 10 uM; type: functional; conditions: read-out: GI
[31] = Cytotoxicity against human MCF-10A cells assessed as growth inhibition at 10 uM in presence of 0.5 uM daunorubicin; type: toxicity, cell-based; conditions: read-out: GI
[32] = system: MDA-MB-231; assay: Activation of cGAS/STING pathway in human MDA-MB-231 cells assessed as increase in STING phosphorylation at 10 uM in presence of 0.5 uM daunorubicin measured after 24 hrs; type: cell-based; conditions: filed as activator
[33] = system: MDA-MB-231; assay: Growth inhibition of human MDA-MB-231 cells at 10 uM in presence of 4 uM daunorubicin; type: functional; conditions: read-out: GI
[34] = system: MDA-MB-231; assay: Activation of cGAS/STING pathway in human MDA-MB-231 cells assessed as upregulation of CXCL9 mRNA expression at 10 uM in presence of 0.5 uM daunorubicin measured after 24 hrs; type: cell-based; conditions: filed as activator
[35] = system: 4T1; assay: Growth inhibition of mouse 4T1 cells assessed as combination index at 10 uM in presence of 0.5 uM daunorubicin; type: functional
[36] = system: 4T1; assay: Growth inhibition of mouse 4T1 cells assessed as combination index at 10 uM in presence of 1 uM daunorubicin; type: functional
[37] = system: MDA-MB-231; assay: Activation of cGAS/STING pathway in human MDA-MB-231 cells assessed as upregulation of CXCL10 mRNA expression at 10 uM in presence of 0.5 uM daunorubicin measured after 24 hrs; type: cell-based; conditions: filed as activator
[38] = biological target: T1, Protein cereblon/Poly [ADP-ribose] polymerase 1; assay: Protac activity at CRBN/PARP1 in human MDA-MB-231 cells assessed as PARP1 degradation at 10 uM measured after 4 to 48 hrs; type: cell-based; conditions: time 4-48 hrs
Target sequence in this assay (P09874 2-1014 limits assumed): as the sequence (P09874 2-1014 limits assumed) above
Target sequence in this assay (Q96SW2 whole entry partner): as the sequence (Q96SW2 whole entry partner) above

[39] = system: MDA-MB-231; assay: Growth inhibition of human MDA-MB-231 cells assessed as combination index at 10 uM in presence of 4 uM daunorubicin; type: functional
[40] = Cmax in rat at 8 mg/kg, iv; type: ADME, organism-based; parameters: dose 8 mg/kg, route iv; conditions: in vivo
[41] = Cytotoxicity against human MCF-10A cells assessed as growth inhibition at 10 uM; type: toxicity, cell-based; conditions: read-out: GI
[42] = system: MDA-MB-231; assay: Growth inhibition of human MDA-MB-231 cells at 10 uM; type: functional; conditions: read-out: GI
[43] = system: MDA-MB-231; assay: Inhibition of DNA repair in human MDA-MB-231 cells assessed as induction of free cytosolic dsDNA at 5 uM in presence of 0.5 uM daunorubicin measured after 24 hrs by DAPI staining method; type: functional, cell-based
[44] = system: MDA-MB-231; assay: Growth inhibition of human MDA-MB-231 cells assessed as combination index at 10 uM in presence of 0.25 uM daunorubicin; type: functional
[45] = system: MDA-MB-231; assay: Activation of cGAS/STING pathway in human MDA-MB-231 cells assessed as upregulation of STING mRNA expression at 10 uM in presence of 0.5 uM daunorubicin measured after 24 hrs; type: cell-based; conditions: filed as activator
[46] = system: 4T1; assay: Growth inhibition of mouse 4T1 cells at 10 uM in presence of 0.5 uM daunorubicin; type: functional; conditions: read-out: GI
[47] = system: MDA-MB-231; assay: Inhibition of DNA repair in human MDA-MB-231 cells assessed as induction of gamma-H2AX level at 10 uM in presence of 0.5 uM daunorubicin measured after 2 hrs by western blot analysis; type: functional, cell-based
[48] = system: MDA-MB-231; assay: Growth inhibition of human MDA-MB-231 cells assessed as combination index at 10 uM in presence of 1 uM daunorubicin; type: functional
[49] = system: MDA-MB-231; assay: Growth inhibition of human MDA-MB-231 cells at 10 uM in presence of 0.25 uM daunorubicin; type: functional; conditions: read-out: GI

`COc1cccc2c1C(=O)c1c(O)c3c(c(O)c1C2=O)C[C@@](O)(C(C)=O)C[C@@H]3O[C@H]1C[C@H](N)[C@H](O)[C@H](C)O1` [DAUNORUBICIN] showed an inhibition of growth at 0.25 µM [1] of 9.76%, an inhibition of growth at 1 µM [2] of 10.7% and an inhibition at 0.25 µM [3] of 35%. It also gave an inhibition at 0.5 µM [4] of 46.1%, an inhibition of growth at 0.25 µM [5] of 60% and an inhibition of growth at 0.5 µM [6] of 63.6%. It also gave an inhibition of growth at 1 µM [7] of 69.8% and an inhibition of growth at 4 µM [8] of 36.9%.
For `NC(=O)c1cccc2cn(-c3ccc(C4CCCN(c5cccc6c5C(=O)N(C5CCC(=O)NC5=O)C6=O)C4)cc3)nc12` (centres undefined), the Activity [9] was “Active”, the Activity [10] was “Active” and the CI [11] was 0.44. The inhibition of growth at 10 µM [12] was 98.2%, the half-life [13] was 1.87 h and the Activity [14] was “Active”. The Activity [15] was “Active”, the AUC(0-t) [16] was 6960 ng·h/mL and the Activity [17] was “Active”. The Activity [18] was “Active”, the inhibition of growth at 10 µM [19] was 38.1% and the Activity [20] was “Active”. For the same compound, the Activity [21] was “Active”, the Activity [22] was “Active” and the inhibition of growth at 10 µM [23] was 65.5%. For the same compound, the Activity [24] was “Active”, the Activity [25] was “Active” and the DC50 [26] was 252 nM. The inhibition at 10 µM [27] was 35%, the Activity [28] was “Non-Toxic” and the MRT [29] was 2.55 h. The inhibition of growth at 10 µM [30] was 2.71%, the inhibition at 10 µM [31] was 41.2% and the Activity [32] was “Active”. The inhibition of growth at 10 µM [33] was 59.8%, the Activity [34] was “Active” and the CI [35] was 0.45. For the same compound, the CI [36] was 0.0001, the Activity [37] was “Active” and the Activity [38] was “Active”. It also gave a CI [39] of 0.12, a Cmax [40] of 5770 ng/mL and an inhibition at 10 µM [41] of 4.93%. For the same compound, the inhibition of growth at 10 µM [42] was 4.55%, the inhibition [43] was “Active” and the CI [44] was 0.21. The Activity [45] was “Active”, the inhibition of growth at 10 µM [46] was 70.1% and the inhibition [47] was “Active”. It also gave a CI [48] of 0.06 and an inhibition of growth at 10 µM [49] of 22.5%.
